Tested on: Banana fruit
Experiment: Ripening of bananas after 1-MCP dip of varied duration and ethylene exposure (Comparative Example 1)
Assay type: in vivo, Musa
Conditions: 20 microgram 1-MCP per liter with 0.6 ml/l NuFilm 17; for peel colour after 12 days: 12 days after exposure to ethylene
Excerpt: The following Examples, the color of banana peels is rated according to a seven stage rating scale, published by Chiquita Brands International, Inc. (http://www.chiquita.com/chiquita/Discover/cbripen.asp): stage 1 (dark green); stage 2 (all light green); stage 3 (more green than yellow); stage 4 (more yellow than green); stage 5 (green tips and necks); stage 6 (all yellow; maybe light green necks, no green tips); stage 7 (yellow flecked with brown). Consumers generally prefer to eat bananas in stage 5 or stage 6.
Banana fruit with an age of 12 weeks, grown and treated in Costa Rica. The bananas were dipped (not sprayed). The solution of every 1-MCP treatment included 0.6 ml/l NuFilm 17® 96% (elastomer-forming additive, Miller Chemical and Fertilizer Co.). Control sample had no dip. Other samples were dipped in water solution in which powdered encapsulation complex of 1-MCP in alpha-cyclodextrin was added to water to give concentration of 20 microgram 1-MCP per liter. Bananas were dipped for zero time (in and out), 5 minutes, or 20 minutes.
After 1-MCP treatment, fruit were allowed to dry on racks after treatments before being repacked in the boxes. The boxes were stored at 14° C. for 7 days. The boxes were conditioned at 20-21° C. for 6 hours before being treated with a continuous stream of 100 microliter per liter ethylene in a treatment chamber at 20° C. by 24 hours. After ethylene treatment the boxes were kept at ambient conditions (20° C. and 95% RH). Bananas were inspected at 5, 7, 10, and 12 days after exposure to ethylene.
Complete randomized design was used, with 4 treatments and 2 boxes per treatment. Clusters from each treatment were evaluated every two days after ethylene treatment.

CC1=CC1 [Treatment 1-MCP, 1-methylcyclopropene]
ripening (dipped for 5 minutes): did not ripen normally
peel colour after 12 days (dipped for 5 minutes): remained green
ripening (dipped for 20 minutes): did not ripen normally
peel colour after 12 days (dipped for 20 minutes): remained green
difference in ripening versus control bananas (dipped in and out quickly (zero time)): No significant difference
